# Legend:
# [1] = test system: rice leafroller (Cnaphalocrocis medinalis); assay: Insecticidal effect on rice leafroller (Test Example 3); type: in vivo; settings: 500 ppm, four days after inoculation, 25° C., humidity 70%; for Insecticidal effect, Test Example 3: rice lamina immersed; for Insecticidal effect on rice leafroller (Test Example 3), judged grade: rice lamina dip, third-instar larvae
# Experimental: Insecticidal effect on rice leafroller (Cnaphalocrocis medinalis)
# After air-drying, the lamina was placed in a plastic Petri dish with a diameter of 9 cm whose bottom had been covered with a wetted filter paper. The lamina was inoculated with third-instar larvae of rice leafroller, after which the dish was allowed to stand in a room thermostated at 25° C. and having a humidity of 70%. Four days after the inoculation, the dead and alive were counted and the insecticidal effect was judged according to the criterion shown in Test Example 1. The test was carried out with triplicate groups of 10 insects.
# [2] = test system: diamondback moth (Plutella xylostella); assay: Insecticidal effect on diamondback moth (Test Example 1); type: in vivo; settings: diamondback moth; for Insecticidal effect, Test Example 1: mortality judged by criterion of Test Example 1; for Insecticidal effect (Test Example 1), judged from mortality: judged by the criterion of Test Example 1
# Procedure, shortened: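 Eggs laid by adult moths on Chinese cabbage seedlings, which were immersed in test solution, air-dried and kept at 25 °C. Hatched insects counted 6 days after immersion and mortality calculated, with effect graded by criterion; triplicate groups of 10 insects.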
# [3] = third-instar larvae of rice leafroller
# [4] = rice leafroller third-instar larvae
structure (smiles),measurement,setting,value
CC(C)NC(=O)c1ccccc1C(=O)Nc1ccc(C(F)(F)C(F)(F)C(F)(F)C(F)(F)F)cc1 [compound 28],"Insecticidal effect, Test Example 3",[1]; [3],A (100)
Cc1ccc(NC(=O)c2ccccc2C(=O)NC(C)C)c(C)c1 [compound 44],"Insecticidal effect, Test Example 3",[1]; [3],A (100)
COC(=O)c1ccc(NC(=O)c2ccccc2C(=O)NC(C)C)c(C)c1 [compound 71],"Insecticidal effect, Test Example 3",[1]; [3],D (79-50)
CCOP(=O)(OCC)c1ccc(NC(=O)c2ccccc2C(=O)NC(C)C)c(C)c1 [compound 81],"Insecticidal effect, Test Example 3",[1]; [3],A (100)
CC(C)NC(=O)c1c(I)cccc1C(=O)Nc1ccc(C(F)(F)F)cc1 [compound 349],"Insecticidal effect, Test Example 3",[1]; [3],A (100)
CC(C)NC(=O)c1c(I)cccc1C(=O)Nc1ccc(OC(F)(F)F)cc1 [compound 352],"Insecticidal effect, Test Example 3",[1]; [3],A (100)
CC(C)NC(=O)c1cccc(I)c1C(=O)Nc1ccc(C(F)(F)F)cc1 [compound 415],"Insecticidal effect, Test Example 3",[1]; [3],A (100)
CC(C)NC(=O)c1cccc(I)c1C(=O)Nc1ccc(OC(F)(F)F)cc1 [compound 418],"Insecticidal effect, Test Example 3",[1]; [3],A (100)
CC(C)NC(=O)c1cccc(F)c1C(=O)Nc1ccc(C(F)(F)C(F)(F)C(F)(F)C(F)(F)F)cc1 [compound 536],"Insecticidal effect on rice leafroller (Test Example 3), judged grade",[1],A (100)
CCCCc1ccc(NC(=O)c2cccc([N+](=O)[O-])c2C(=O)NC(C)C)cc1 [compound 605],"Insecticidal effect on rice leafroller (Test Example 3), judged grade",[1],C (89-80)
CC(C)NC(=O)c1c(C(=O)Nc2cccc3c2CCC3)cccc1[N+](=O)[O-] [compound 735],"Insecticidal effect on rice leafroller (Test Example 3), judged grade",[1],D (79-50)
Cc1cc(Cl)ccc1NC(=O)c1cccc(C(F)(F)F)c1C(=O)NC(C)C [compound 758],"Insecticidal effect on rice leafroller (Test Example 3), judged grade",[1],A (100)
Cc1cc(OC(F)F)ccc1NC(=O)c1cccc(C(F)(F)F)c1C(=O)NC(C)C [compound 759],"Insecticidal effect on rice leafroller (Test Example 3), judged grade",[1],D (79-50)
Cc1c(Cl)cccc1NC(=O)c1c(C(=O)NC(C)C)cccc1C(F)(F)F [compound 765],"Insecticidal effect on rice leafroller (Test Example 3), judged grade",[1],A (100)
Cc1cc(Br)ccc1NC(=O)c1cccc([S+](C)[O-])c1C(=O)NC(C)C (stereo not shown) [compound 790],"Insecticidal effect on rice leafroller (Test Example 3), judged grade",[1],A (100)
Cc1cc(OC(F)F)ccc1NC(=O)c1c(SCC(F)(F)F)cccc1C(=O)NC(C)C [compound 798],"Insecticidal effect on rice leafroller (Test Example 3), judged grade",[1],A (100)
Cc1cc(OC(F)F)ccc1NC(=O)c1c(C(=O)NC(C)C)cccc1[S+]([O-])CC(F)(F)F (stereo not shown) [compound 800],"Insecticidal effect on rice leafroller (Test Example 3), judged grade",[1],C (89-80)
Cc1cc(SC(F)(F)C(F)(F)F)ccc1NC(=O)c1c(I)cccc1C(=O)NC(C)C [compound 910],"Insecticidal effect on rice leafroller (Test Example 3), judged grade",[1],A (100)
CCCCCCNC(=O)c1cccc(I)c1C(=O)Nc1ccc(C(F)(F)C(F)(F)F)cc1C [compound 950],"Insecticidal effect, Test Example 3",[1]; [4],C (89-80)
Cc1cc(C(F)(F)C(F)(F)F)ccc1NC(=O)c1c(I)cccc1C(=O)NCCC(C)C [compound 1016],"Insecticidal effect, Test Example 3",[1]; [4],A (100)
CCC(C)CNC(=O)c1cccc(I)c1C(=O)Nc1ccc(C(F)(F)C(F)(F)F)cc1C (stereo not shown) [compound 1027],"Insecticidal effect, Test Example 3",[1]; [4],A (100)
Cc1cc(C(F)(F)C(F)(F)F)ccc1NC(=O)c1c(I)cccc1C(=O)N(C(C)C)C(C)C [compound 1072],"Insecticidal effect, Test Example 3",[1]; [4],A (100)
CCN(CC)C(=O)c1cccc([N+](=O)[O-])c1C(=O)Nc1ccc(Cl)cc1C [compound 1138],"Insecticidal effect, Test Example 3",[1]; [4],A (100)
Cc1cc(C(F)(F)C(F)(F)F)ccc1NC(=O)c1c(I)cccc1C(=O)N1CC(C)CC(C)C1 (stereo not shown) [compound 1140],"Insecticidal effect, Test Example 3",[1]; [4],A (100)
Cc1cc(OC(F)(F)F)ccc1NC(=O)c1cc(Cl)cc(Cl)c1C(=O)NC(C)C [compound 1224],"Insecticidal effect, Test Example 3",[1]; [4],B (99-90)
Cc1cc(C(F)(F)C(F)(F)F)ccc1NC(=O)c1cc(Cl)cc(Cl)c1C(=O)NC(C)C [compound 1225],"Insecticidal effect, Test Example 3",[1]; [4],A (100)
Cc1cc(C(F)(C(F)(F)F)C(F)(F)F)ccc1NC(=O)c1cc(Cl)cc(Cl)c1C(=O)NC(C)C [compound 1226],"Insecticidal effect, Test Example 3",[1]; [4],A (100)
Cc1cc(OC(F)F)ccc1NC(=O)c1c(I)cccc1C(=O)NCc1ccccc1 [compound 1431],"Insecticidal effect, Test Example 1",[2],A (100)
Cc1ccccc1CNC(=O)c1c(I)cccc1C(=O)Nc1ccc(OC(F)F)cc1C [compound 1434],"Insecticidal effect, Test Example 1",[2],A (100)
Cc1cc(OC(F)F)ccc1NC(=O)c1cccc(I)c1C(=O)N(C)Cc1ccccc1 [compound 1440],"Insecticidal effect, Test Example 1",[2],A (100)
Cc1cc(C(F)(F)C(F)(F)F)ccc1NC(=O)c1cccc(Cl)c1C(=O)N[C@@H](CO)c1ccccc1 [compound 1442],"Insecticidal effect, Test Example 1",[2],A (100)
Cc1cc(C(F)(F)C(F)(F)F)ccc1NC(=O)c1c(Cl)cccc1C(=O)N[C@@H](CO)c1ccccc1 [compound 1443],"Insecticidal effect (Test Example 1), judged from mortality",[2],A (100)
Cc1cc(C(F)(F)C(F)(F)F)ccc1NC(=O)c1c(Cl)cccc1C(=O)N[C@@H](C)CO [compound 1446],"Insecticidal effect (Test Example 1), judged from mortality",[2],A (100)
CCCNC(=O)c1cccc(I)c1C(=O)Nc1ccc(OC(F)F)cc1C [compound 1451],"Insecticidal effect (Test Example 1), judged from mortality",[2],A (100)
Cc1cc(OC(F)F)ccc1NC(=O)c1c(I)cccc1C(=O)NC1CC1 [compound 1453],"Insecticidal effect (Test Example 1), judged from mortality",[2],A (100)
Cc1cc(C(F)(F)C(F)(F)F)ccc1NC(=O)c1c(Cl)cccc1C(=O)NCc1ccccc1F [compound 1469],"Insecticidal effect (Test Example 1), judged from mortality",[2],A (100)
Cc1cc(C(F)(F)C(F)(F)F)ccc1NC(=O)c1cccc(Cl)c1C(=O)NCC(O)c1ccccc1 (stereo not shown) [compound 1476],"Insecticidal effect (Test Example 1), judged from mortality",[2],A (100)
CCNC(=O)c1cccc(F)c1C(=O)Nc1ccc(C(F)(F)C(F)(F)F)cc1F [compound 1511],"Insecticidal effect (Test Example 1), judged from mortality",[2],A (100)
CCCNC(=O)c1cccc(F)c1C(=O)Nc1ccc(C(F)(F)C(F)(F)F)cc1F [compound 1513],"Insecticidal effect (Test Example 1), judged from mortality",[2],A (100)
CC(C)NC(=O)c1cccc(F)c1C(=O)Nc1ccc(C(F)(F)C(F)(F)F)cc1F [compound 1515],"Insecticidal effect (Test Example 1), judged from mortality",[2],A (100)
Cc1cc(C(F)(F)C(F)(F)F)ccc1NC(=O)c1c(I)cccc1C(=O)N[C@@H](C)CO [compound 1518],"Insecticidal effect (Test Example 1), judged from mortality",[2],A (100)
Cc1cc(-c2ccc(OC(F)(F)F)cc2)ccc1NC(=O)c1cccc(I)c1C(=O)NC(C)C [compound 1521],"Insecticidal effect (Test Example 1), judged from mortality",[2],A (100)
Cc1cc(C(F)(F)C(F)(F)F)ccc1NC(=O)c1c(Cl)cccc1C(=O)NCc1ccc(OC(F)(F)F)cc1 [compound 1577],"Insecticidal effect (Test Example 1), judged from mortality",[2],A (100)
Cc1cc(C(F)(F)C(F)(F)F)ccc1NC(=O)c1cccc(Cl)c1C(=O)N(C)Cc1ccccc1F [compound 1579],"Insecticidal effect (Test Example 1), judged from mortality",[2],A (100)
Cc1cc(C(F)(F)C(F)(F)F)c(C)cc1NC(=O)c1cccc(I)c1C(=O)NC(C)(C)C [compound 1611],"Insecticidal effect (Test Example 1), judged from mortality",[2],A (100)
CC(C)NC(=O)c1c(I)cccc1C(=O)Nc1cccc(-c2csc(C(F)(F)F)n2)c1 [compound 1658],"Insecticidal effect (Test Example 1), judged from mortality",[2],A (100)
Cc1cc2c(cc1NC(=O)c1cccc(Cl)c1C(=O)NC(C)C)OC(F)(F)O2 [compound 1661],"Insecticidal effect (Test Example 1), judged from mortality",[2],A (100)
CC(C)(C)NC(=O)c1c(I)cccc1C(=O)Nc1ccc2oc(C(F)(F)F)nc2c1Cl [compound 1683],"Insecticidal effect (Test Example 1), judged from mortality",[2],A (100)
CC(C)c1cc(C(F)(C(F)(F)F)C(F)(F)F)ccc1NC(=O)c1cccc(I)c1C(=O)NC(C)(C)C [compound 1692],"Insecticidal effect (Test Example 1), judged from mortality",[2],A (100)
CCOc1cc(C(F)(C(F)(F)F)C(F)(F)F)ccc1NC(=O)c1cccc(I)c1C(=O)NC(C)(C)C [compound 1694],"Insecticidal effect (Test Example 1), judged from mortality",[2],A (100)
Cc1cc(NC(=O)c2cccc(I)c2C(=O)NC(C)C)c(Br)cc1C(F)(C(F)(F)F)C(F)(F)F [compound 1698],"Insecticidal effect (Test Example 1), judged from mortality",[2],A (100)
CC(C)NC(=O)c1c(I)cccc1C(=O)Nc1ccc(C(F)(C(F)(F)F)C(F)(F)F)cc1-c1ccccc1 [compound 1767],"Insecticidal effect (Test Example 1), judged from mortality",[2],A (100)
Cc1cc(C(F)(F)C(F)(F)F)ccc1NC(=O)c1c(SC(F)(F)F)ccc(Cl)c1C(=O)NC(C)C [compound 1802],"Insecticidal effect (Test Example 1), judged from mortality",[2],A (100)
Cc1cc(C(F)(F)C(F)(F)F)ccc1NC(=O)c1cccc([S+]([O-])C(F)(F)F)c1C(=O)NC(C)C (stereo not shown) [compound 1804],"Insecticidal effect (Test Example 1), judged from mortality",[2],A (100)
Cc1cc(C(F)(C(F)(F)F)C(F)(F)F)ccc1NC(=O)c1cccc([S+]([O-])C(F)(F)F)c1C(=O)NC(C)C (stereo not shown) [compound 1805],"Insecticidal effect (Test Example 1), judged from mortality",[2],A (100)

# Source: US6362369B1, “Phthalic acid diamide derivatives fluorine-containing aniline compounds as starting material, agricultural and horticultural insecticides, and a method for application of the insecticides” (Nihon Nohyaku Co., Ltd., priority 1997, dated 2002)
